In data set [1] the test system is A549 cells. Kind of data set: Cardiolipin oxidation (NAO, flow cytometry). Particulars: 4 h. It counts as cell-based, human. As for the experimental part:
(§1) DNA damage was measured using EpiQuik 8-OHdG DNA Damage Quantification Direct Kit (colorimetric) (Fischer, Waltham, MA, USA, P600396); The mitochondrial cytochrome C release was evaluated using the “Millipore’s FlowCellect Cytochrome C Kit (Millipore, FCCH100110)”. Lactate dehydrogenase activity release was measured in the culture medium using Cytotoxicity Detection Kit (Roche Diagnostic, Barcelona, Spain, 11 644 793 001). Protein synthesis was determined using Click-iT Plus O-propargyl-puromycin (OPP) Protein Synthesis Assay Kit (Invitrogen™, Waltham, MA, USA). Measurement of GSH/GSSG was determined with GSH/GSSG-Glo Assay (Promega, V6611). Measurements of OCR and ECAR with Seahorse XFp (Agilent Technologies) were determined using the XFp Cell Mito Stress Test Kit (103010-100) and XFp Glycolysis Stress Test Kit (103017-100). ATP measurement was determined with Cell Titer-Glo Luminescent Cell Viability Assay (Promega, Madison, WI, USA, G7570). Determination of DNA damage using phosphorylated H2AX measurement were performed as previously described. Cardiolipin oxidation using the fluorophore Nonyl Acridine Orange (NAO, Thermo Scientific, A1372) was performed as described. Cell viability was determined by Hoechst inclusion and Propidium iodide (PI) exclusion by standard protocols. TEM analysis were performed as described. […]

The test system of data set [2] is A549 cells. Kind of data set: Viability of A549 proliferant vs quiescent cells. Particulars: 24 h. In kind it is cell-based, human. Here is the method:
Cytotoxicity. MTT Assay and IC50 estimation. The cytotoxicity of 1[C,NH-Cl], 2[C,NMe-Cl], 3[N,NH-Cl]Cl, 4[N,NMe-Cl]Cl, 5[CNH2,NH-Cl]Cl, 6[CNH2,S-Cl]Cl, 7[CO,NH-Cl] and 8[CO,S-Cl] in A2780, A2780cis, SW480 and A549 carcinoma cells was evaluated by the MTT colorimetric assay. Cells were seeded in 96-well plates at 5000 cells per well and incubated at 37 °C, 5% CO2. […] Final DMSO concentration was kept below 0.7% in wells. For a negative control, one sequence of cells was left untreated and for vehicle control, cells treated with DMSO were included. For cell viability experiments preincubating with NAC (N-Acetyl-L-Cysteine), the cells were pre-treated with NAC, 10 mM for 2 h before the incubation with complex 1[C,NH-Cl] for 24 h. Then, the medium was removed from the wells, and 100 µL MTT (5 mg/mL) was added. After an incubation time of 4 h, 100 μL of solubilizing detergent solution (SDS, 10% in HCL 0.01 M) was added and kept in the incubator overnight. Cell growth inhibition was detected by measuring the absorbance of each well at 595 nm using a BioTek Cytation5 microplate reader. Each test was repeated in quadruplicate in three independent experiments for each cell line. The percentage of survival cells was calculated using absorbance measurements compared with control and the IC50 estimation using Graph Pad Prism version 6.01.

Data set [3] concerns A549 cells. The data set is described as follows: Lactate dehydrogenase release. In kind it is cell-based, human. Conditions: 16 µM, 1% FBS. Here is the method: as §1
Data set [4] concerns A549 cells. Kind of data set: Cytochrome c release (FlowCellect kit). In kind it is cell-based, human. Conditions: 5 h. Here is the method: as §1
Data set [5] relates to BALB/c mice. Kind of data set: Acute toxicity in healthy mice. It counts as in vivo, mouse. Particulars: dissolved in PBS. The source says:
Female mice weighing approximately 20–25 g, 8–12 weeks were obtained from Janvier Laboratories (Le Genest-Saint-Isle, France). All mice received a standard laboratory diet and water ad libitum. The use of immunosuppressed animals is always a limitation since they are not a true reflection of an animal with a functional immune system and, therefore, can affect both the toxicological response and the biodistribution of a compound, but they are essential to be able to implant human tumor cells, otherwise the tumor would be rejected by the immune system. Therefore, in order to analyze the biodistribution, toxicology and efficacy of a compound against a tumor, it is necessary to use different animals. Animal studies were approved by the Bioethics Committee of the Universidade de Santiago de Compostela and were done in compliance with the principles of laboratory animal care according to Spanish national law (RD 53/2013).

Data set [6] concerns A549 cells. The data set is described as follows: Hoechst/propidium iodide staining. It counts as cell-based, human. Particulars: 16 μM. As for the experimental part:
as §1

Data set [7] has as its system cytosolic Ca2+. The data set is described as follows: Cytosolic calcium (Fluo3/AM). It counts as cell-based. Particulars: 16 µM, after 4 h of incubation. As for the experimental part:
Specific assays with 1[C,NH] complex were performed according to manufacturer’s instructions using the following reagents from Molecular Probes (Thermo Fisher Scientific): Measurements of ROS: Dihydroethidium (DHE, D11347) and 2′, 7′-dichlorodihydrofluorescein diacetate (H2DCFDA, D399); detection of caspases 3/7: CellEvent Caspase-3/7 Green Detection Reagent (C10423); Cell viability: Live/Dead Cell Imaging Kit (R37601); Analysis of cytosolic calcium concentration: Fluo3/AM (F23915); Analysis of MMP: Tetramethylrhodamine methyl ester perchlorate (TMRM, T668). RT-qPCR’s assays were performed with the following primers/probes from Thermo Fisher Scientific: DCP1A (Hs00218198-m1), FOSB (Hs00171851-m1), EGR1(Hs0015928-m1), ATF3 (Hs00231069-m1), DDIT3 (Hs00358796-g1), PP1R15A (Hs00169585-m1), CHAC1(Hs00225520-m1), MIR9-1 (Hs04231512-s1), ATP1B2 (Hs00155922-m1), BBC3 (Hs00248075-m1), BCL2L11 (Hs00798019-s1), PMAIP1 (Hs00560402-m1), SKP2 (Hs01021864-m1) and HIST1H1B (Hs00271207-s1). RT-qPCR experiments were performed as described.

The test system of data set [8] is A549 cells. The data set is described as follows: 8-OHdG DNA damage quantification. It counts as cell-based, human. Conditions: 16 μM, 4 h. As for the experimental part: as §1
For data set [9], the system named is A549-luc orthotopic lung tumor in athymic nude mice. The data set is described as follows: Orthotopic lung cancer model (A549-luc). In kind it is in vivo, mouse. Here is the method: Orthotopic lung cancer model. Athymic nude mice were used. The model was developed following the protocol previously described. On day 20, treatment with the metal complex was started, and 4 doses were given every other day. Tumor growth was measured in vivo by luminescence (IVIS® Spectrum) on the days that the complexes were not administered, ending the experiment on day 37 with the sacrifice of the animal and the removal of organs. Organ indicators of metastases, lungs, and mediastinal lymph nodes were processed as previously described. Histological analyzes were performed as described.

[10] abbreviates: 4 doses (0.9 mg/kg) on alternate days.

Structures are written as SMILES.

In the case of `Cc1c(C)c(C)[c-](C)c1C.[Cl][Ir]1[c]2ccccc2-c2[nH]c3ccccc3[n+]21` [1[C,NH], [(η^5-Cp*)IrCl(κ^2-N,C-pbim)]], the Cardiolipin oxidation result in data set [1] is listed as “induced CL oxidation”. The same molecule gave an IC50 in data set [2] (A549 non-proliferating (quiescent) condition) of 17 µM. In addition, the IC50 in data set [2] (A549 proliferating condition) is 9.5 µM. The “LDH release to the medium” value in data set [3] is “only began after 8 h of incubation”. Also, in [4], the Cytochrome c release entry is on record as “increased Cyt c release”. The molecule also registered a Maximum tolerated dose in data set [5] of 1.3 mg/kg. Further, the PI positive cells entry in data set [6] is reported as “absent during the first 6 h of treatment”. Besides, in data set [7], the “Cytosolic Ca2+” value is listed as “increase in cytosolic Ca^2+”. For the same molecule, the 8-OHdG levels result in data set [8] is “increased after 4 h”. Also, in data set [9] (setting [10]), the “Body weight of treated mice” value is on record as “did not lose weight” and the “Necropsy findings in non-tumor tissues” value is on record as “no pathological evidence of relevance was detected in non-tumor tissues”. For the same molecule, in data set [9] (4 doses (0.9 mg/kg), day 37), the “Luciferase activity in mediastinal nodes” value is listed as “lack of effect”, the “Luciferase activity in the primary tumor (lung extracts)” value is recorded as “significantly reduced luciferase activity in the primary tumor” and the “Size of tumor foci (anti-CK7 immunohistochemistry)” value is reported as “strong effect on reducing the size of tumor foci”.

The record behind these values is publication PMC9818021, “Targets, Mechanisms and Cytotoxicity of Half-Sandwich Ir(III) Complexes Are Modulated by Structural Modifications on the Benzazole Ancillary Ligand” (Cancers, 2022).
